# Test results: PMC4092373, “Cell-secreted Flavins Bound to Membrane Cytochromes Dictate Electron Transfer Reactions to Surfaces with Diverse Charge and pH” (Scientific Reports, 2014)
# Columns and labels:
# [1] = biological target: T1, MtrC (Shewanella oneidensis, UniProt Q8EG34); assay: whole-cell differential pulse voltammetry; format: cell-based; settings: rough estimate in living wild-type MR-1 monolayer biofilm; printed for FMN and OM c-Cyts collectively, assigned to MtrC by gene deletions; saturation assumed at 52 μM FMN; semiquinone form bound under
# T1 construct: native outer-membrane decaheme cytochrome in intact living cells (monolayer biofilm on ITO electrode), not purified
# [2] = biological target: T2, OmcA (Shewanella oneidensis, UniProt Q8EG33); assay: whole-cell differential pulse voltammetry; format: cell-based; settings: redox peak potential of bound riboflavin, no affinity constant; delta-mtrC cells, 2.0 μM RF, 10 mM lactate, 30 °C; shift lost in delta-omcA cells
# T2 construct: native outer-membrane decaheme cytochrome in intact living cells (wild type and delta-mtrC strain on ITO electrode), not purified
# T2 sequence (Q8EG33 entry or part of it): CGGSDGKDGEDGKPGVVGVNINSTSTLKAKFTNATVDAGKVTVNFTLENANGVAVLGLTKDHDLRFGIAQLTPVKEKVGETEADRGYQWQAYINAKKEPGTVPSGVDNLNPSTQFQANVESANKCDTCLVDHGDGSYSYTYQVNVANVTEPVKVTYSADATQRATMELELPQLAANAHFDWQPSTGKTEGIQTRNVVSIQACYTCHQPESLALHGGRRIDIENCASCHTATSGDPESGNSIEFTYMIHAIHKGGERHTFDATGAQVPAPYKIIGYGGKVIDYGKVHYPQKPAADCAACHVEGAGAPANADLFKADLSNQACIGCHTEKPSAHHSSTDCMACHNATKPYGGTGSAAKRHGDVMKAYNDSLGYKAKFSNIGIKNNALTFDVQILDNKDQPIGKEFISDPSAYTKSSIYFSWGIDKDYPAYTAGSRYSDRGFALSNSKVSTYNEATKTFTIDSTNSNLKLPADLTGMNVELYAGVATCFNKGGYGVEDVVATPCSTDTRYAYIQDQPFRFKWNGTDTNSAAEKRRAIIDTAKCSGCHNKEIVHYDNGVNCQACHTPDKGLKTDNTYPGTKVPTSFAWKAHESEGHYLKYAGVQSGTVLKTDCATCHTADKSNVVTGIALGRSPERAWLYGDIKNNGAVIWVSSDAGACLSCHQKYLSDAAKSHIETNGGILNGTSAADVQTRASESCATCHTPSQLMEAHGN
# T1 sequence (Q8EG34 entry or part of it): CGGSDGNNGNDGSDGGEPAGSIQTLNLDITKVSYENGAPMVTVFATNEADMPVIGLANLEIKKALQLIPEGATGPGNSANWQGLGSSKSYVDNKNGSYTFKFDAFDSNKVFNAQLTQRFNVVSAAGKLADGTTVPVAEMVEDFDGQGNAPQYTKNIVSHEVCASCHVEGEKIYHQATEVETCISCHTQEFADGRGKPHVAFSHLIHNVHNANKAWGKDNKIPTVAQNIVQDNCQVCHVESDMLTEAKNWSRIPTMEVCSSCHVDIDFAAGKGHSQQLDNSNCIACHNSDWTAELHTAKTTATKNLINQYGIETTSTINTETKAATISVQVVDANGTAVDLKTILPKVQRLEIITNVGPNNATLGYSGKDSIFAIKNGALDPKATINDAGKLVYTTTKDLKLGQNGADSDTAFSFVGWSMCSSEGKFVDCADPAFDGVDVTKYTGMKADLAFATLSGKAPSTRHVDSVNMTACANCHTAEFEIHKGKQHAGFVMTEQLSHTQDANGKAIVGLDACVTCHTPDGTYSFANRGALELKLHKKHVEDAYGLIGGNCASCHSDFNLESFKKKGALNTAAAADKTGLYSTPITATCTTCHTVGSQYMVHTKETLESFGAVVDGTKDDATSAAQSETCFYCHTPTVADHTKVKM
Kd [1],Ep [2],SMILES
~10 µM,,"Cc1cc2nc3c(=O)[nH]c(=O)nc-3n(C[C@H](O)[C@H](O)[C@H](O)COP(=O)(O)O)c2cc1C [FMN, flavin mononucleotide]"
,−102 mV,"Cc1cc2nc3c(=O)[nH]c(=O)nc-3n(C[C@H](O)[C@H](O)[C@H](O)CO)c2cc1C [RF, riboflavin]"
